Series [1] is described as follows: Partition of marker compound between water and gasoline phases. Format: physicochemical. Conditions: for Initial Fluorescence Intensity in Water Phase / Fluorescence Intensity in Water Phase After Partition: gasoline, excitation 540 nm, emission 590 nm; for Initial Fluorescence Intensity in Water Phase: 10 ppb marker; for Fluorescence Intensity in Water Phase After Partition: not background corrected; for Partition Ratio (Kd): water/gasoline, corrected for background. The procedure:
(§1) In this Example, the separation/partition of the marker compound between water and fuel phases was measured. The procedure for this Example included: measure fluorescence of 10 grams of water phase with and without marker compound present to determine background fluorescence. Then, 10 grams of hydrocarbon including 10 ppb of marker compound was added to the water and gently agitated for 1 minute. After mixing, the sample was allowed to completely separate into two phases. Thereafter, the fluorescence of the water phase was re-measured. Since the marker concentration is directly proportional to fluorescence intensity (at 10 ppb and within a range of interest), the Partition Ratio can be calculated from the initial and final tracer fluorescence intensities (corrected for any background fluorescence) from the water phase.
(§2) For this Example, Rhodamine B, Rhodamine 101, and Fluorescein marker compounds were used. For Rhodamine 101 and Rhodamine B measurements, excitation wavelength was 540 nm and emission wavelength was 590 nm. For Fluorescein measurements, excitation wavelength was 470 nm and emission wavelength was 515 nm.

Series [2] in a line: Partition of marker compound between water and heptane phases. The note with it: for Initial Fluorescence Intensity in Water Phase / Fluorescence Intensity in Water Phase After Partition: heptane, excitation 540 nm, emission 590 nm; for Initial Fluorescence Intensity in Water Phase: 10 ppb marker; for Fluorescence Intensity in Water Phase After Partition: not background corrected; for Partition Ratio (Kd): water/heptane, corrected for background. Format: physicochemical. The procedure: as §1, §2

Take `O=C([O-])c1ccccc1C1=c2cc3c4c(c2Oc2c1cc1c5c2CCCN5CCC1)CCC[N+]=4CCC3` [Rhodamine 101]: in series [1], the “Initial Fluorescence Intensity in Water Phase” value (“Initial Fluorescence Intensity” for short) is on record as 73.5 arb units, the “Fluorescence Intensity in Water Phase After Partition” value stood at 12.5 arb units and the “Partition Ratio (Kd)” value was 0.20. Besides, in series [2], the “Initial Fluorescence Intensity” value is 73 arb units, the “Fluorescence Intensity in Water Phase After Partition” value is 20 arb units and the “Partition Ratio (Kd)” value is 0.35.
Take `CCN(CC)c1ccc2c(-c3ccccc3C(=O)O)c3ccc(=[N+](CC)CC)cc-3oc2c1.[Cl-]` [Rhodamine B]: in series [1], the “Initial Fluorescence Intensity” value is given as 71.5 arb units, the “Fluorescence Intensity in Water Phase After Partition” value worked out at 13 arb units and the “Partition Ratio (Kd)” value came out at 0.21. In series [2], the “Initial Fluorescence Intensity” value is 75 arb units, the “Fluorescence Intensity in Water Phase After Partition” value is given as 21.5 arb units and the “Partition Ratio (Kd)” value amounted to 0.38.

Values taken from patent publication US12169192B2, “Methods of identifying a hydrocarbon fuel” (Afton Chemical Corporation, priority 2020, dated 2024).
